Holding throughout (type): in vivo
One series concerns Echinochloa crus-galli. Description: Paddy herbicidal activity test. The settings on record: irrigated paddy pot, treated at 3.5 leaf stage of Echinochloa crus-galli, 30 days. As for the experimental part: (§1) Rice paddy soil was filled into a 1/10000 are pot followed by the addition of suitable amounts of water and chemical fertilizer, kneading, seeding with Echinochloa crus-galli, Monochoria vaginalis and Scirpus juncoides and maintaining in an irrigated state at a water depth of 3 cm. Wettable powder of Target Compound (I) shown in Table 1 prepared in compliance with the preparation examples were diluted with a suitable amount of water, rice plants in the 2.0 leaf stage were transplanted during 3.5 leaf stage of Echinochloa crus-galli, and treated by dropping in chemical in the prescribed amount per are using a pipette. After treating for 30 days in a glass greenhouse at an average atmospheric temperature of 30° C., the herbicidal efficacy thereof was investigated. Evaluation of herbicidal efficacy was carried out by comparing growth inhibition rate (%) with an untreated group, while evaluation of phytotoxicity was carried out by comparing growth inhibition rate (%) with the state of a complete eradication group, and were evaluated at 11 levels indicated below. [table]

Another series has as its system Scirpus juncoides. Description: Paddy herbicidal activity test. The settings on record: irrigated paddy pot, 30 days. Here is the method:
as §1

Another series has as its system Monochoria vaginalis. Description: Paddy herbicidal activity test. To be noted: irrigated paddy pot, 30 days. As for the experimental part:
as §1

For another series, the system named is Rice plants. As to the kind of experiment: Paddy herbicidal activity test, phytotoxicity to transplanted rice. To be noted: rice transplanted at 2.0 leaf stage, 30 days. As for the experimental part: as §1

Take `N#Cc1cnn(-c2nn3c(c2Cl)CCCC3)c1N(CC1CC1)C(=O)C(F)(F)C(F)(F)F` [Compound 3]: the “herbicidal efficacy (growth inhibition rate level) Echinochloa crus-galli” value with Echinochloa crus-galli (1g a.i./10a) and in the series with Echinochloa crus-galli (5g a.i./10a) was 8 (8: 80% to less than 90%) in each case. The entries for the “herbicidal efficacy (growth inhibition rate level) Scirpus juncoides” value in the series with Scirpus juncoides (1g a.i./10a) and in the series with Scirpus juncoides (5g a.i./10a) were 7 (7: 70% to less than 80%) and 8 (8: 80% to less than 90%), respectively. Also, the “herbicidal efficacy (growth inhibition rate level) Monochoria vaginalis” value in the series on Monochoria vaginalis (1g a.i./10a) and with Monochoria vaginalis (5g a.i./10a) was 7 (7: 70% to less than 80%) throughout. The “phytotoxicity (growth inhibition rate level) Rice plants” value in the series on Rice plants (1g a.i./10a) and in the series on Rice plants (5g a.i./10a) was 0 (0 (exponent): 0% to less than 10% (growth inhibition rate)) in each case.

Consider `CC1(CNc2c(C#N)cnn2-c2nn3c(c2Cl)CCCC3)CC1` [Compound 4], for which the figures for the “herbicidal efficacy (growth inhibition rate level) Echinochloa crus-galli” value in the series with Echinochloa crus-galli (1g a.i./10a) and with Echinochloa crus-galli (5g a.i./10a) were 9 (9: 90% to less than 100%) and 10 (10: 100%), respectively. The “herbicidal efficacy (growth inhibition rate level) Scirpus juncoides” value with Scirpus juncoides (1g a.i./10a) and in the series on Scirpus juncoides (5g a.i./10a) was 8 (8: 80% to less than 90%) each time. Also, the “herbicidal efficacy (growth inhibition rate level) Monochoria vaginalis” value in the series on Monochoria vaginalis (1g a.i./10a) and in the series on Monochoria vaginalis (5g a.i./10a) was 9 (9: 90% to less than 100%) throughout. The “phytotoxicity (growth inhibition rate level) Rice plants” value in the series with Rice plants (1g a.i./10a) is 0 (0 (exponent): 0% to less than 10% (growth inhibition rate)); in the series with Rice plants (5g a.i./10a), 1 (1: 10% to less than 20%).

As for `N#Cc1cnn(-c2nn3c(c2Cl)CCC3)c1NCC1CC1` [Compound 5], the “herbicidal efficacy (growth inhibition rate level) Echinochloa crus-galli” value in the series with Echinochloa crus-galli (1g a.i./10a) was 9 (9: 90% to less than 100%); in the series on Echinochloa crus-galli (5g a.i./10a), 10 (10: 100%). In addition, the “herbicidal efficacy (growth inhibition rate level) Scirpus juncoides” value in the series with Scirpus juncoides (1g a.i./10a) was 8 (8: 80% to less than 90%); in the series with Scirpus juncoides (5g a.i./10a) it was 9 (9: 90% to less than 100%). For the same compound, the “herbicidal efficacy (growth inhibition rate level) Monochoria vaginalis” value in the series with Monochoria vaginalis (1g a.i./10a) and in the series with Monochoria vaginalis (5g a.i./10a) was 9 (9: 90% to less than 100%) throughout. Also, the “phytotoxicity (growth inhibition rate level) Rice plants” value in the series with Rice plants (1g a.i./10a) is recorded as 0 (0 (exponent): 0% to less than 10% (growth inhibition rate)); in the series with Rice plants (5g a.i./10a), 1 (1: 10% to less than 20%).

For `N#Cc1cnn(-c2nn3c(c2Cl)CCC3)c1N(CC1CC1)C(=O)C(F)(F)F` [Compound 6], the “herbicidal efficacy (growth inhibition rate level) Echinochloa crus-galli” value with Echinochloa crus-galli (1g a.i./10a) and with Echinochloa crus-galli (5g a.i./10a) was 9 (9: 90% to less than 100%) each time. The “herbicidal efficacy (growth inhibition rate level) Scirpus juncoides” value in the series with Scirpus juncoides (1g a.i./10a) was 7 (7: 70% to less than 80%); in the series with Scirpus juncoides (5g a.i./10a), 8 (8: 80% to less than 90%). The figures for the “herbicidal efficacy (growth inhibition rate level) Monochoria vaginalis” value with Monochoria vaginalis (1g a.i./10a) and with Monochoria vaginalis (5g a.i./10a) were 8 (8: 80% to less than 90%) and 9 (9: 90% to less than 100%), respectively. Moreover, the “phytotoxicity (growth inhibition rate level) Rice plants” value in the series with Rice plants (1g a.i./10a) and in the series with Rice plants (5g a.i./10a) was 0 (0 (exponent): 0% to less than 10% (growth inhibition rate)) in each case.

As for `CC(Nc1c(C#N)cnn1-c1nn2c(c1Cl)CCCC2)C1(C)CC1` (stereo not shown) [Compound 8], the “herbicidal efficacy (growth inhibition rate level) Echinochloa crus-galli” value with Echinochloa crus-galli (1g a.i./10a) and in the series on Echinochloa crus-galli (5g a.i./10a) was 9 (9: 90% to less than 100%) each time. Besides, the “herbicidal efficacy (growth inhibition rate level) Scirpus juncoides” value in the series on Scirpus juncoides (1g a.i./10a) is reported as 7 (7: 70% to less than 80%); with Scirpus juncoides (5g a.i./10a), 8 (8: 80% to less than 90%). Moreover, the “herbicidal efficacy (growth inhibition rate level) Monochoria vaginalis” value in the series on Monochoria vaginalis (1g a.i./10a) and in the series with Monochoria vaginalis (5g a.i./10a) was 7 (7: 70% to less than 80%) throughout. Besides, the “phytotoxicity (growth inhibition rate level) Rice plants” value in the series with Rice plants (1g a.i./10a) and with Rice plants (5g a.i./10a) was 0 (0 (exponent): 0% to less than 10% (growth inhibition rate)) in each case.

Take `CC1CC1CN(C(=O)C(F)(F)F)c1c(C#N)cnn1-c1nn2c(c1Cl)CCCC2` (stereo not shown) [Compound 13]: the “herbicidal efficacy (growth inhibition rate level) Echinochloa crus-galli” value in the series on Echinochloa crus-galli (1g a.i./10a) and in the series with Echinochloa crus-galli (5g a.i./10a) was 9 (9: 90% to less than 100%) in each case. Moreover, the “herbicidal efficacy (growth inhibition rate level) Scirpus juncoides” value in the series with Scirpus juncoides (1g a.i./10a) and in the series with Scirpus juncoides (5g a.i./10a) was 8 (8: 80% to less than 90%) each time. Further, the “herbicidal efficacy (growth inhibition rate level) Monochoria vaginalis” value with Monochoria vaginalis (1g a.i./10a) and in the series on Monochoria vaginalis (5g a.i./10a) was 8 (8: 80% to less than 90%) each time. Further, the “phytotoxicity (growth inhibition rate level) Rice plants” value is listed as 0 (0 (exponent): 0% to less than 10% (growth inhibition rate)) in the series with Rice plants (1g a.i./10a) and 1 (1: 10% to less than 20%) in the series on Rice plants (5g a.i./10a).

Take `CC(C1CC1)N(C(=O)C(F)(F)F)c1c(C#N)cnn1-c1nn2c(c1Cl)CCCC2` (stereo not shown) [Compound 14]: the “herbicidal efficacy (growth inhibition rate level) Echinochloa crus-galli” value is listed as 8 (8: 80% to less than 90%) with Echinochloa crus-galli (1g a.i./10a) and 9 (9: 90% to less than 100%) with Echinochloa crus-galli (5g a.i./10a). Moreover, the “herbicidal efficacy (growth inhibition rate level) Scirpus juncoides” value in the series with Scirpus juncoides (1g a.i./10a) is on record as 7 (7: 70% to less than 80%); with Scirpus juncoides (5g a.i./10a) it was 8 (8: 80% to less than 90%). For the same compound, the “herbicidal efficacy (growth inhibition rate level) Monochoria vaginalis” value with Monochoria vaginalis (1g a.i./10a) and in the series on Monochoria vaginalis (5g a.i./10a) was 7 (7: 70% to less than 80%) in each case. For the same compound, the “phytotoxicity (growth inhibition rate level) Rice plants” value in the series with Rice plants (1g a.i./10a) and in the series on Rice plants (5g a.i./10a) was 0 (0 (exponent): 0% to less than 10% (growth inhibition rate)) in each case.

With `O=[N+]([O-])c1cnn(-c2nn3c(c2Cl)CCCC3)c1NCC1CC1` [Compound 114], the “herbicidal efficacy (growth inhibition rate level) Echinochloa crus-galli” value in the series with Echinochloa crus-galli (1g a.i./10a) and in the series with Echinochloa crus-galli (5g a.i./10a) was 9 (9: 90% to less than 100%) in each case. Besides, the “herbicidal efficacy (growth inhibition rate level) Scirpus juncoides” value with Scirpus juncoides (1g a.i./10a) was 8 (8: 80% to less than 90%); with Scirpus juncoides (5g a.i./10a) it was 9 (9: 90% to less than 100%). Also, the “herbicidal efficacy (growth inhibition rate level) Monochoria vaginalis” value is given as 7 (7: 70% to less than 80%) in the series on Monochoria vaginalis (1g a.i./10a) and 8 (8: 80% to less than 90%) with Monochoria vaginalis (5g a.i./10a). The “phytotoxicity (growth inhibition rate level) Rice plants” value in the series with Rice plants (1g a.i./10a) and in the series with Rice plants (5g a.i./10a) was 0 (0 (exponent): 0% to less than 10% (growth inhibition rate)) each time.

In the case of `O=C(N(CC1CC1)c1c([N+](=O)[O-])cnn1-c1nn2c(c1Cl)CCCC2)C(F)(F)F` [Compound 115], the “herbicidal efficacy (growth inhibition rate level) Echinochloa crus-galli” value with Echinochloa crus-galli (1g a.i./10a) is listed as 8 (8: 80% to less than 90%); in the series on Echinochloa crus-galli (5g a.i./10a), 9 (9: 90% to less than 100%). In addition, the “herbicidal efficacy (growth inhibition rate level) Scirpus juncoides” value with Scirpus juncoides (1g a.i./10a) is 9 (9: 90% to less than 100%); with Scirpus juncoides (5g a.i./10a), 8 (8: 80% to less than 90%). The “herbicidal efficacy (growth inhibition rate level) Monochoria vaginalis” value in the series on Monochoria vaginalis (1g a.i./10a) and in the series on Monochoria vaginalis (5g a.i./10a) was 8 (8: 80% to less than 90%) throughout. The “phytotoxicity (growth inhibition rate level) Rice plants” value in the series on Rice plants (1g a.i./10a) is 0 (0 (exponent): 0% to less than 10% (growth inhibition rate)); in the series with Rice plants (5g a.i./10a) it was 1 (1: 10% to less than 20%).

For the compound `O=[N+]([O-])c1cnn(-c2nn3c(c2Br)CCCC3)c1NCC1CC1` [Compound 158], the entries for the “herbicidal efficacy (growth inhibition rate level) Echinochloa crus-galli” value in the series with Echinochloa crus-galli (1g a.i./10a) and in the series on Echinochloa crus-galli (5g a.i./10a) were 8 (8: 80% to less than 90%) and 9 (9: 90% to less than 100%), respectively. For the same compound, the “herbicidal efficacy (growth inhibition rate level) Scirpus juncoides” value is listed as 8 (8: 80% to less than 90%) in the series with Scirpus juncoides (1g a.i./10a) and 9 (9: 90% to less than 100%) in the series with Scirpus juncoides (5g a.i./10a). For the same compound, the “herbicidal efficacy (growth inhibition rate level) Monochoria vaginalis” value in the series with Monochoria vaginalis (1g a.i./10a) and in the series with Monochoria vaginalis (5g a.i./10a) was 7 (7: 70% to less than 80%) in each case. Also, the “phytotoxicity (growth inhibition rate level) Rice plants” value in the series on Rice plants (1g a.i./10a) and in the series on Rice plants (5g a.i./10a) was 0 (0 (exponent): 0% to less than 10% (growth inhibition rate)) in each case.

`O=C(N(CC1CC1)c1c([N+](=O)[O-])cnn1-c1nn2c(c1Br)CCCC2)C(F)(F)F` [Compound 159]: the “herbicidal efficacy (growth inhibition rate level) Echinochloa crus-galli” value with Echinochloa crus-galli (1g a.i./10a) is on record as 8 (8: 80% to less than 90%); in the series with Echinochloa crus-galli (5g a.i./10a), 9 (9: 90% to less than 100%). The “herbicidal efficacy (growth inhibition rate level) Scirpus juncoides” value in the series with Scirpus juncoides (1g a.i./10a) is 7 (7: 70% to less than 80%); in the series on Scirpus juncoides (5g a.i./10a), 8 (8: 80% to less than 90%). Also, the “herbicidal efficacy (growth inhibition rate level) Monochoria vaginalis” value with Monochoria vaginalis (1g a.i./10a) is given as 7 (7: 70% to less than 80%); in the series on Monochoria vaginalis (5g a.i./10a), 8 (8: 80% to less than 90%). The “phytotoxicity (growth inhibition rate level) Rice plants” value with Rice plants (1g a.i./10a) and in the series with Rice plants (5g a.i./10a) was 0 (0 (exponent): 0% to less than 10% (growth inhibition rate)) throughout.

The record behind these values is patent publication US9556183B2, “Substituted pyrazolylpyrazole derivative and use of same as herbicide” (KYOYU AGRI CO., LTD., priority 2013, dated 2017).
